Assay results reported in PubChem BioAssay AID1963963 (Molecular Pharmacology Branch, DTP, NCI, 2024).

Tested on: 958667-338-R-J2-PDC tumor spheroids viability
Assay: Anticancer human tumor 958667-338-R-J2-PDC patient-derived colon adenocarcinoma cell line growth inhibition [PI3K]
Settings: spheroids with HUVEC and MSC; for IC50: curve of first compound; for viability, T/C: stronger effect = lower value
Outline: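 Three cell types, namely tumor cells, endothelial cells and mesenchymal stem cells, formed each spheroid. Combinations with four PI3K inhibitors were screened at clinically achievable concentrations decreasing by half-log, and spheroid viability was recorded.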

[1] = second compound 0.00316 µM, first compound 0.0316 µM
[2] = second compound 0.00316 µM, first compound 0.1 µM
[3] = second compound 0.00316 µM, first compound 0.316 µM
[4] = second compound 0.00316 µM, first compound 1 µM
[5] = second compound 0.00316 µM, first compound 3.16 µM
[6] = second compound 0.00316 µM, first compound 10 µM
[7] = second compound 0.01 µM, first compound 0.0316 µM
[8] = second compound 0.01 µM, first compound 0.1 µM
[9] = second compound 0.01 µM, first compound 0.316 µM
[10] = second compound 0.01 µM, first compound 1 µM
[11] = second compound 0.01 µM, first compound 3.16 µM
[12] = second compound 0.01 µM, first compound 10 µM
[13] = second compound 0.0316 µM, first compound 0.0316 µM
[14] = second compound 0.0316 µM, first compound 0.1 µM
[15] = second compound 0.0316 µM, first compound 0.316 µM
[16] = second compound 0.0316 µM, first compound 1 µM
[17] = second compound 0.0316 µM, first compound 3.16 µM
[18] = second compound 0.0316 µM, first compound 10 µM
[19] = second compound 0.1 µM, first compound 0.0316 µM
[20] = second compound 0.1 µM, first compound 0.1 µM
[21] = second compound 0.1 µM, first compound 0.316 µM
[22] = second compound 0.1 µM, first compound 1 µM
[23] = second compound 0.1 µM, first compound 3.16 µM
[24] = second compound 0.1 µM, first compound 10 µM
[25] = second compound 0.316 µM, first compound 0.0316 µM
[26] = second compound 0.316 µM, first compound 0.1 µM
[27] = second compound 0.316 µM, first compound 0.316 µM
[28] = second compound 0.316 µM, first compound 1 µM
[29] = second compound 0.316 µM, first compound 3.16 µM
[30] = second compound 0.316 µM, first compound 10 µM
[31] = second compound 1 µM, first compound 0.0316 µM
[32] = second compound 1 µM, first compound 0.1 µM
[33] = second compound 1 µM, first compound 0.316 µM
[34] = second compound 1 µM, first compound 1 µM
[35] = second compound 1 µM, first compound 3.16 µM
[36] = second compound 1 µM, first compound 10 µM
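Note: spheroids exposed to compounds for seven days before readout.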

C#Cc1c(F)ccc2cc(O)cc(-c3ncc4c(N5CC6CCC(C5)N6)nc(OCC56CCCN5CC(F)C6)nc4c3F)c12 (stereo unspecified) + CC(Nc1ccc2c(c1)OCCn1cc(N3C(=O)OCC3C(F)F)nc1-2)C(N)=O
IC50 (second compound 0.00316 µM): > 10 µM | IC50 (second compound 0.01 µM): > 10 µM | IC50 (second compound 0.0316 µM): 8.56 µM | IC50 (second compound 0.1 µM): 6.62 µM | IC50 (second compound 0.316 µM): 3.47 µM | IC50 (second compound 1 µM): 1.4 µM | viability, T/C [1]: 95.2% | viability, T/C [2]: 97.9% | viability, T/C [3]: 110% | viability, T/C [4]: 90.9% | viability, T/C [5]: 90.6% | viability, T/C [6]: 60.7% | viability, T/C [7]: 101% | viability, T/C [8]: 120% | viability, T/C [9]: 121% | viability, T/C [10]: 97.3% | viability, T/C [11]: 74.2% | viability, T/C [12]: 74.2% | viability, T/C [13]: 99.9% | viability, T/C [14]: 109% | viability, T/C [15]: 100% | viability, T/C [16]: 118% | viability, T/C [17]: 83.1% | viability, T/C [18]: 44.8% | viability, T/C [19]: 69.2% | viability, T/C [20]: 81% | viability, T/C [21]: 77.4% | viability, T/C [22]: 84.1% | viability, T/C [23]: 71.4% | viability, T/C [24]: 37.2% | viability, T/C [25]: 69.1% | viability, T/C [26]: 62% | viability, T/C [27]: 66.7% | viability, T/C [28]: 85.6% | viability, T/C [29]: 52.4% | viability, T/C [30]: 22.5% | viability, T/C [31]: 61% | viability, T/C [32]: 64.4% | viability, T/C [33]: 44.6% | viability, T/C [34]: 57.2% | viability, T/C [35]: 45% | viability, T/C [36]: 25.6%

CC1(C)CCC(Nc2ncc(C(F)(F)F)c(-c3c[nH]c4c(P(C)(C)=O)c(C#N)ccc34)n2)CN1 (stereo unspecified) + CC(Nc1ccc2c(c1)OCCn1cc(N3C(=O)OCC3C(F)F)nc1-2)C(N)=O
IC50 (second compound 0.00316 µM): 4.62 µM | IC50 (second compound 0.01 µM): 2.8 µM | IC50 (second compound 0.0316 µM): 2.55 µM | IC50 (second compound 0.1 µM): 4.67 µM | IC50 (second compound 0.316 µM): 1.68 µM | IC50 (second compound 1 µM): 1.64 µM | viability, T/C [1]: 108% | viability, T/C [2]: 85.9% | viability, T/C [3]: 79.7% | viability, T/C [4]: 75.2% | viability, T/C [5]: 67.8% | viability, T/C [6]: 29.5% | viability, T/C [7]: 135% | viability, T/C [8]: 109% | viability, T/C [9]: 76.9% | viability, T/C [10]: 63.2% | viability, T/C [11]: 67.6% | viability, T/C [12]: 20.1% | viability, T/C [13]: 111% | viability, T/C [14]: 108% | viability, T/C [15]: 58.2% | viability, T/C [16]: 60.7% | viability, T/C [17]: 64.6% | viability, T/C [18]: 25.7% | viability, T/C [19]: 95.2% | viability, T/C [20]: 78.6% | viability, T/C [21]: 71.5% | viability, T/C [22]: 75.8% | viability, T/C [23]: 66.8% | viability, T/C [24]: 24.3% | viability, T/C [25]: 78.7% | viability, T/C [26]: 78.7% | viability, T/C [27]: 53.1% | viability, T/C [28]: 54% | viability, T/C [29]: 55.9% | viability, T/C [30]: 26.2% | viability, T/C [31]: 86.9% | viability, T/C [32]: 66.8% | viability, T/C [33]: 67.2% | viability, T/C [34]: 52.8% | viability, T/C [35]: 50.8% | viability, T/C [36]: 14.3%

Cn1cnc2c(F)c(Nc3ccc(Br)cc3Cl)c(C(=O)NOCCO)cc21 + CC(Nc1ncnc2nc[nH]c12)c1cc2cccc(Cl)c2c(=O)n1-c1ccccc1
IC50 (second compound 0.0316 µM): 0.365 µM | IC50 (second compound 0.1 µM): 0.261 µM | IC50 (second compound 0.316 µM): 0.363 µM | IC50 (second compound 1 µM): 0.28 µM | IC50 (second compound 3.16 µM): 0.21 µM | IC50 (second compound 10 µM): 0.0904 µM | viability, T/C (second compound 0.0316 µM, first compound 0.00949 µM): 89.8% | viability, T/C (second compound 0.0316 µM, first compound 0.03 µM): 80.5% | viability, T/C (second compound 0.0316 µM, first compound 0.0949 µM): 71% | viability, T/C (second compound 0.0316 µM, first compound 0.3 µM): 52.2% | viability, T/C (second compound 0.0316 µM, first compound 0.949 µM): 35.5% | viability, T/C (second compound 0.0316 µM, first compound 3 µM): 20% | viability, T/C (second compound 0.1 µM, first compound 0.00949 µM): 84.3% | viability, T/C (second compound 0.1 µM, first compound 0.03 µM): 80.6% | viability, T/C (second compound 0.1 µM, first compound 0.0949 µM): 62.6% | viability, T/C (second compound 0.1 µM, first compound 0.3 µM): 49.3% | viability, T/C (second compound 0.1 µM, first compound 0.949 µM): 31.3% | viability, T/C (second compound 0.1 µM, first compound 3 µM): 20.3% | viability, T/C (second compound 0.316 µM, first compound 0.00949 µM): 80.7% | viability, T/C (second compound 0.316 µM, first compound 0.03 µM): 97.4% | viability, T/C (second compound 0.316 µM, first compound 0.0949 µM): 74.8% | viability, T/C (second compound 0.316 µM, first compound 0.3 µM): 53.3% | viability, T/C (second compound 0.316 µM, first compound 0.949 µM): 32.2% | viability, T/C (second compound 0.316 µM, first compound 3 µM): 19.8% | viability, T/C (second compound 1 µM, first compound 0.00949 µM): 73.3% | viability, T/C (second compound 1 µM, first compound 0.03 µM): 83.5% | viability, T/C (second compound 1 µM, first compound 0.0949 µM): 59.7% | viability, T/C (second compound 1 µM, first compound 0.3 µM): 48.2% | viability, T/C (second compound 1 µM, first compound 0.949 µM): 33.9% | viability, T/C (second compound 1 µM, first compound 3 µM): 17% | viability, T/C (second compound 3.16 µM, first compound 0.00949 µM): 85.3% | viability, T/C (second compound 3.16 µM, first compound 0.03 µM): 81.6% | viability, T/C (second compound 3.16 µM, first compound 0.0949 µM): 57% | viability, T/C (second compound 3.16 µM, first compound 0.3 µM): 44.3% | viability, T/C (second compound 3.16 µM, first compound 0.949 µM): 31.3% | viability, T/C (second compound 3.16 µM, first compound 3 µM): 13.3% | viability, T/C (second compound 10 µM, first compound 0.00949 µM): 78.3% | viability, T/C (second compound 10 µM, first compound 0.03 µM): 62.9% | viability, T/C (second compound 10 µM, first compound 0.0949 µM): 45.2% | viability, T/C (second compound 10 µM, first compound 0.3 µM): 41.7% | viability, T/C (second compound 10 µM, first compound 0.949 µM): 20.7% | viability, T/C (second compound 10 µM, first compound 3 µM): 10.4%
